Experimental data published in ChEMBL document CHEMBL5360657, “Discovery of the TLR7/8 Antagonist MHV370 for Treatment of Systemic Autoimmune Diseases” (ACS Med Chem Lett, 2023).
In brackets after ≈: the same amount, converted by molar mass.

Assays:
[1] = target: T1, Toll-like receptor 7 (Homo sapiens, UniProt Q9NYK1); assay: Antagonist activity at TLR7 in human PBMC cells assessed as reduction in IFN alpha measured after 20 hrs by AlphaLISA assay; type: cell-based
T1 sequence (Q9NYK1 whole entry): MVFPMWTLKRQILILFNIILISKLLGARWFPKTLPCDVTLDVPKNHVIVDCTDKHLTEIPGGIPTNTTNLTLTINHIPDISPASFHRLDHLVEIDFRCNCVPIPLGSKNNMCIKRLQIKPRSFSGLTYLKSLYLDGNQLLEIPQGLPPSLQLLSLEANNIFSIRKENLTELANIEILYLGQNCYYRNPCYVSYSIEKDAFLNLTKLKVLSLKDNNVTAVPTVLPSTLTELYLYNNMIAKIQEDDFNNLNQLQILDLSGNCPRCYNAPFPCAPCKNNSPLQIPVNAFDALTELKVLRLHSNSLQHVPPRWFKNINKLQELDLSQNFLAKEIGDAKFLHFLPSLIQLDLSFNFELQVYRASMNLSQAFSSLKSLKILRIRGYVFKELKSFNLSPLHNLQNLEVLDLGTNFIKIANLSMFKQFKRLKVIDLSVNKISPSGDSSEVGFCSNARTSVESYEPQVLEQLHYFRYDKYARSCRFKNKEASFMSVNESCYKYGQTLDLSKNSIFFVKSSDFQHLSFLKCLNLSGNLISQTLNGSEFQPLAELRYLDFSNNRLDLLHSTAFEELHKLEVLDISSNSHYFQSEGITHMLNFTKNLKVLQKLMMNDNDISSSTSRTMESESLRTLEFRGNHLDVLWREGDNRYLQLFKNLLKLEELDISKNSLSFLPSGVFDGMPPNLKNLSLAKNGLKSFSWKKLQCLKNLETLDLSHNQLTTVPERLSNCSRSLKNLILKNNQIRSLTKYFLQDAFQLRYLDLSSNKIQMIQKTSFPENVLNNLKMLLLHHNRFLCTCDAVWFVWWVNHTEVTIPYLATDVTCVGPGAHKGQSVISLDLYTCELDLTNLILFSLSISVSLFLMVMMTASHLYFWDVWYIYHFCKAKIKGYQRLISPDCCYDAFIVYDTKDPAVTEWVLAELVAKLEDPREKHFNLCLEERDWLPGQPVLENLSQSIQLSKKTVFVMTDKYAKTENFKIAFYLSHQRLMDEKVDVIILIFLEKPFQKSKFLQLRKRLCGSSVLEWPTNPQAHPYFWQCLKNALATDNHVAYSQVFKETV

[2] = target: T2, Toll-like receptor 8 (Homo sapiens, UniProt Q9NR97); assay: Antagonist activity at TLR8 in human PBMC cells […] assessed as reduction in IL-6 level measured after 20 hrs by AlphaLISA assay; type: cell-based
T2 sequence (Q9NR97 whole entry): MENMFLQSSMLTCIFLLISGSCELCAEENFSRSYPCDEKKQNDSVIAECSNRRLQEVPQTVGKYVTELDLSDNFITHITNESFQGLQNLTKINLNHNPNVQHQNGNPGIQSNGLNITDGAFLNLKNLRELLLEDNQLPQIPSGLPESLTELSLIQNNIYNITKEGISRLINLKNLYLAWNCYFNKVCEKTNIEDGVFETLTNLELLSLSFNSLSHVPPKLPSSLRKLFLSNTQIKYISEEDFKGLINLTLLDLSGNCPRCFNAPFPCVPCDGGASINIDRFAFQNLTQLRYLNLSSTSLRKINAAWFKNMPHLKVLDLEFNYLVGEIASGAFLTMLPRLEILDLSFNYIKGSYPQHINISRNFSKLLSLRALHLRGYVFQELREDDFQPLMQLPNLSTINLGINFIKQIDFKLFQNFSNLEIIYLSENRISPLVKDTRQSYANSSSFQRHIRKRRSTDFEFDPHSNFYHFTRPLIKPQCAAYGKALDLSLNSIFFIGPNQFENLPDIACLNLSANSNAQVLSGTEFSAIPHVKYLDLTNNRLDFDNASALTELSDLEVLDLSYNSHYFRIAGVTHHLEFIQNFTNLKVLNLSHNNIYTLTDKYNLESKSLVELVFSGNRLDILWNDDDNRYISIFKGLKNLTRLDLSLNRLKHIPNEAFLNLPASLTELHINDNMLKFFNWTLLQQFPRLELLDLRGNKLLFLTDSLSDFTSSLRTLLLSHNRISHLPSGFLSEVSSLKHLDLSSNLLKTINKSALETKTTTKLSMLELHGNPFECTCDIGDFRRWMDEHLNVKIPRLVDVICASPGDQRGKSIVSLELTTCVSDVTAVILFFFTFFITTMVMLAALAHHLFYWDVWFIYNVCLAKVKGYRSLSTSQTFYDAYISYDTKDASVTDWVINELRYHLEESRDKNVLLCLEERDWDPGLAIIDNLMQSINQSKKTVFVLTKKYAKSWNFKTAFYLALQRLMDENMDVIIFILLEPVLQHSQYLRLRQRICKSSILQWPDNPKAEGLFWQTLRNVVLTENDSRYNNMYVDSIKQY

[3] = target: T3, Toll-like receptor 9 (Homo sapiens, UniProt Q9NR96); assay: Antagonist activity at TLR9 in human PBMC cells assessed as reduction in IFN alpha measured after 20 hrs by AlphaLISA assay; type: cell-based
T3 sequence (Q9NR96 whole entry): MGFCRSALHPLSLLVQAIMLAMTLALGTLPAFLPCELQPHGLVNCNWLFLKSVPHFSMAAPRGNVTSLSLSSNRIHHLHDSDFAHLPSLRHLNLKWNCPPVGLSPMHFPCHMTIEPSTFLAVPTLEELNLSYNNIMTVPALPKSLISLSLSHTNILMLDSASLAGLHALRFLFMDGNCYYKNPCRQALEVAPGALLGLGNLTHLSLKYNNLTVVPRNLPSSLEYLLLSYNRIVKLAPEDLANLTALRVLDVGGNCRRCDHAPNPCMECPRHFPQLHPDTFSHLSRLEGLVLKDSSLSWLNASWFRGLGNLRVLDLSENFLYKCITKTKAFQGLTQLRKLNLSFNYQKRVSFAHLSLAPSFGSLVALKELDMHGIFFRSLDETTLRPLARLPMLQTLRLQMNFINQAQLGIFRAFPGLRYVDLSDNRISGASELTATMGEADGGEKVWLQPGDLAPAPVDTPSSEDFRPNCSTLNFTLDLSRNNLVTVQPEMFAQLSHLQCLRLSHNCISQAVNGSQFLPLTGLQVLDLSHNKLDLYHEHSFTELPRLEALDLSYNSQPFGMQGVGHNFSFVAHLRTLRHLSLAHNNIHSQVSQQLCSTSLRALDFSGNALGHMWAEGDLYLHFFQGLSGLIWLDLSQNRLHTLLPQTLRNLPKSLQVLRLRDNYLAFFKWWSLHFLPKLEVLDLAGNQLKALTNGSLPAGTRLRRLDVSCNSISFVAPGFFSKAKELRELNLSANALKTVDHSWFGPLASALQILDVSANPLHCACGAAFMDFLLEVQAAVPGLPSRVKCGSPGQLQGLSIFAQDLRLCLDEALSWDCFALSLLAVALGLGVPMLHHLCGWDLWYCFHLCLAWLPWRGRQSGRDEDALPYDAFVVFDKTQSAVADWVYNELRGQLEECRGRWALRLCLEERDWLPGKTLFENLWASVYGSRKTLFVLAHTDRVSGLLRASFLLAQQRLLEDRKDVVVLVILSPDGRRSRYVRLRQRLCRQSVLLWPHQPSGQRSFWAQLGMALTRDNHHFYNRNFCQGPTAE

[4] = Permeability of the compound by PAMPA; type: ADME
[5] = Solubility of the compound; type: physicochemical
[6] = target: Voltage-gated inwardly rectifying potassium channel KCNH2 (Homo sapiens, UniProt Q12809); assay: Displacement of [3H]-dofetilite from human ERG (unknown origin); type: toxicity
Voltage-gated inwardly rectifying potassium channel KCNH2, sequence (Q12809 whole entry): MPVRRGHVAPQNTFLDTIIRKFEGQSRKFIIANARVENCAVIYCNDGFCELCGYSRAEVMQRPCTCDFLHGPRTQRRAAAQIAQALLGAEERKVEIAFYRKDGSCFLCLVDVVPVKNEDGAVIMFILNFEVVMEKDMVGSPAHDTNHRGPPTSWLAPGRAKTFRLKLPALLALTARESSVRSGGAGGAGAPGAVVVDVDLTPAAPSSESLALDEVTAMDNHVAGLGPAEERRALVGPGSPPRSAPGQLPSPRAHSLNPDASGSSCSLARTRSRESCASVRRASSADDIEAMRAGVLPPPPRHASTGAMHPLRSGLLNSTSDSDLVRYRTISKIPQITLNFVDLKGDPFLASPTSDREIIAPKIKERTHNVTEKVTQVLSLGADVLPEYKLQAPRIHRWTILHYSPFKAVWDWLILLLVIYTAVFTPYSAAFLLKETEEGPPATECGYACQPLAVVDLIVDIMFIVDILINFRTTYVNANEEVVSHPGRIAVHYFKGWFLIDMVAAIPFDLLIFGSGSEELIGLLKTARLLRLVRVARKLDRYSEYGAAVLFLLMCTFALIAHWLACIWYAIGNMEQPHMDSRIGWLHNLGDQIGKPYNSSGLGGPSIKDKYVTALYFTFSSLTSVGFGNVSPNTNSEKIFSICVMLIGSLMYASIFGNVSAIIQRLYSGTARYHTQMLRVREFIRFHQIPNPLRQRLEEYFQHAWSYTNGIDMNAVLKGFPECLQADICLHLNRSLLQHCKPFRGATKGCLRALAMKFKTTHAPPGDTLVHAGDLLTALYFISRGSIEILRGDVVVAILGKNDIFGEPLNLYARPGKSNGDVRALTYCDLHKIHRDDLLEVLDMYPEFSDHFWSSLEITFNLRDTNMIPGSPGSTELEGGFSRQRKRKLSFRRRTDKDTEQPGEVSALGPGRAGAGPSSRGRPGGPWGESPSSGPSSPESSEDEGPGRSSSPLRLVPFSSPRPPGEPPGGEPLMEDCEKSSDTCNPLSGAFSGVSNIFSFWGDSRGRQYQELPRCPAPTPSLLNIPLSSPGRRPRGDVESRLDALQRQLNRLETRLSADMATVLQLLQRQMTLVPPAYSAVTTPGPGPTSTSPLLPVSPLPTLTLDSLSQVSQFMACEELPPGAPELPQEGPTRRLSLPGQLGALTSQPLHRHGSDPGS

[7] = target: T4, Cytochrome P450 3A4 (Homo sapiens, UniProt P08684); assay: Inhibition of CYP3A4 (unknown origin); type: ADME
T4 sequence (P08684 whole entry): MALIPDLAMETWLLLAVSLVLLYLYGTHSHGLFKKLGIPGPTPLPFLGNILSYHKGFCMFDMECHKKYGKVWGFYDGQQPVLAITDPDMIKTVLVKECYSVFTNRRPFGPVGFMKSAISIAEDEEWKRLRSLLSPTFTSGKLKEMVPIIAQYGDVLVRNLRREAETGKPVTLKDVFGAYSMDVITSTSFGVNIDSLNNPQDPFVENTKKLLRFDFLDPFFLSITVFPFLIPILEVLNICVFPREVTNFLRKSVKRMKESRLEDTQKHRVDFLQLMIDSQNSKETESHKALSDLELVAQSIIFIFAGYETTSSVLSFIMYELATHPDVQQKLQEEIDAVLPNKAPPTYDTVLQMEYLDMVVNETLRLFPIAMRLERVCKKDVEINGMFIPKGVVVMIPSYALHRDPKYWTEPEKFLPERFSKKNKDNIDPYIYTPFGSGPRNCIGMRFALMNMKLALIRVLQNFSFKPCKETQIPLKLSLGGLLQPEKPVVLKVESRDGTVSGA

[8] = target: T4, Cytochrome P450 3A4; assay: Time dependent inhibition of CYP3A4 (unknown origin) assessed as Kobs; type: ADME
[9] = Metabolic stability in human liver microsomes assessed as intrinsic clearance; type: ADME, Microsome; conditions: read-out: CLH
[10] = Metabolic stability in rat liver microsomes assessed as intrinsic clearance; type: ADME, Microsome; conditions: read-out: CLH
[11] = Metabolic stability in mouse liver microsomes assessed as intrinsic clearance; type: ADME, Microsome; conditions: read-out: CLH

Structure (SMILES)	IC50 [1] [nM]	IC50 [2] [nM]	IC50 [3] [nM]	log(permeability) [4]	solubility [5] [µM]	IC50 [6] [nM]	IC50 [7] [nM]	Kobs [8] [min⁻¹]	microsomal CLint [9] [µL/min/mg]	microsomal CLint [10] [µL/min/mg]	microsomal CLint [11] [µL/min/mg]
Cc1cc(N2CCc3c(c(C)nn3CC34CCC(NS(C)(=O)=O)(CC3)CC4)C2)c2cnn(C)c2n1	8	> 10000	> 10000	-4.8	120 (≈ 59.7 µg/mL)	> 30000	> 50000	0.021	107	78	–
Cc1cc(N2CCc3c(c(C)nn3CC34CCC(NC5CCC5)(CC3)CC4)C2)c2cnn(C)c2n1	–	71	550	-4.2	> 175	25000	28000	0.037	52	28	77
Cc1cc(N2CCc3c(c(C)nn3CC34CCC(N5CCOCC5)(CC3)CC4)C2)c2cnn(C)c2n1	–	30	2100	-4.1	> 175	> 30000	> 50000	0.038	130	175	246
Cc1cc(N2CCc3c(c(C)nn3CC34CCC(NC5COC5)(CC3)CC4)C2)c2cnn(C)c2n1	30	180	970	-4.5	> 175	> 30000	33000	0.009	57	67	60
Cc1cc(N2CCc3c(c(C)nn3CC34CCC(N5CCCC5)(CC3)CC4)C2)c2cnn(C)c2n1	–	85	350	-4.7	> 175	11000	18000	0.022	62	55	24
Cc1cc(N2CCc3c(c(C)nn3CC34CCC(NCC(F)F)(CC3)CC4)C2)c2cnn(C)c2n1	–	140	–	-3.7	> 175	> 30000	8600	0.011	423	656	–
CC(=O)NC12CCC(Cn3nc(C)c4c3CCN(c3cc(C)nc5c3cnn5C)C4)(CC1)CC2	–	> 10000	5200	-4.6	> 175	> 30000	24000	0.022	63	45	–
Cc1cc(N2CCc3c(c(C)nn3CC34CCC(N5CCC5)(CC3)CC4)C2)c2cnn(C)c2n1	5	120	530	-4.7	–	> 30000	> 50000	0.015	96	30	65
COCCNC12CCC(Cn3nc(C)c4c3CCN(c3cc(C)nc5c3cnn5C)C4)(CC1)CC2	10	50	350	-4.8	> 175	22000	–	–	27	< 15	< 15
